Test results reported in patent publication US10294202B2, “Pyrrolidinones as herbicides” (FMC Corporation, priority 2013, dated 2019).

Columns and labels:
morningglory = experiment: Test E preemergence herbicide test; assay type: in vivo, Ipomoea coccinea; set-up: key: 0 = no effect, 100 = complete control
Description: (§1) Seeds of plant species selected from corn (Zea mays), soybean (Glycine max), velvetleaf (Abutilon theophrasti), lambsquarters (Chenopodium album), wild poinsettia (Euphorbia heterophylla), pigweed, palmer (palmer pigweed, Amaranthus palmeri), waterhemp (common waterhemp, Amaranthus rudis), surinam grass (Brachiaria decumbens), crabgrass, large (large crabgrass, Digitaria sanguinalis), crabgrass, Brazil (Brazilian crabgrass, Digitaria horizontalis), panicum, fall (fall panicum, Panicum dichotomiflorum), foxtail, giant (giant foxtail, Setaria faberii), foxtail, green (green foxtail, Setaria viridis), goosegrass (Eleusine indica), johnsongrass (Sorghum halepense), ragweed (common ragweed, Ambrosia elatior), barnyardgrass (Echinochloa crus-galli), sandbur (southern sandbur, Cenchrus echinatus), arrowleaf […] rhombifolia), ryegrass, Italian (Italian ryegrass, Lolium multiflorum), dayflower, VA (Virginia dayflower, Commelina virginica), field bindweed (Convolvulus arvensis), morningglory (Ipomoea coccinea), nightshade (eastern black nightshade, Solanum ptycanthum), kochia (Kochia scoparia), nutsedge, yellow (yellow nutsedge, Cyperus esculentus), cocklebur (common cocklebur, Xanthium strumarium), smartweed (ladysthumb smartweed, Polygonum Persicaria) and beggarticks (hairy beggarticks, Bidens pilosa), were planted into a silt loam soil and treated preemergence with test chemicals formulated in a non-phytotoxic solvent mixture which included a surfactant. Treated plants and controls were maintained in a greenhouse for 21 days, after which time all species were compared to controls and visually evaluated. Plant response ratings, summarized in Table E, are based on a scale of 0 to 100 where 0 is no effect and 100 is complete control. A dash (-) response means no test result.

arrowleaf sida = experiment: Test E preemergence herbicide test; assay type: in vivo, Sida rhombifolia; set-up: key: 0 = no effect, 100 = complete control
Description: as §1

crabgrass, large = experiment: Test E preemergence herbicide test; assay type: in vivo, Digitaria sanguinalis; set-up: key: 0 = no effect, 100 = complete control
Description: as §1

nutsedge, yellow = experiment: Test E preemergence herbicide test; assay type: in vivo, Cyperus esculentus; set-up: key: 0 = no effect, 100 = complete control
Description: as §1

foxtail, giant = experiment: Test E preemergence herbicide test; assay type: in vivo, Setaria faberii; set-up: key: 0 = no effect, 100 = complete control
Description: as §1

ryegrass, Italian = experiment: Test E preemergence herbicide test; assay type: in vivo, Lolium multiflorum; set-up: key: 0 = no effect, 100 = complete control
Description: as §1

galium = experiment: Test D pre-/postemergence herbicide test; assay type: in vivo, Galium aparine; conditions: for Plant response rating, Galium: scale 0 to 100 (0 no effect, 100 complete control); for Plant response rating: Galium, scale 0 to 100
Summary of the method: (§2)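 Visual 0–100 ratings (0 = no effect, 100 = complete control) versus controls, made 7 to 21 days after treatment in a controlled growth environment. Test chemicals in surfactant-containing non-phytotoxic solvent were applied preemergence to silt loam-sown seeds and postemergence to plants 2–18 cm tall.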

blackgrass = experiment: Test D pre-/postemergence herbicide test; assay type: in vivo, Alopecurus myosuroides; conditions: for Plant response rating, Blackgrass: scale 0 to 100 (0 no effect, 100 complete control); for Plant response rating: Blackgrass, scale 0 to 100
Description: (§3) Seeds of plant species selected from bluegrass (annual bluegrass, Poa annua), blackgrass (Alopecurus myosuroides), canarygrass (littleseed canarygrass, Phalaris minor), chickweed (common chickweed, Stellaria media), galium (catchweed bedstraw, Galium aparine), bromegrass, downy (downy bromegrass, Bromus tectorum), field poppy (Papaver rhoeas), field violet (Viola arvensis), foxtail, green (green foxtail, Setaria viridis), deadnettle (henbit deadnettle, Lamium amplexicaule), ryegrass, Italian (Italian ryegrass, Lolium multiflorum), kochia (Kochia scoparia), lambsquarters (Chenopodium album), oilseed rape (Brassica napus), pigweed (Amaranthus retroflexus), chamomile (scentless chamomile, Matricaria inodora), Russian thistle (Salsola kali), speedwell (bird's-eye speedwell, Veronica persica), barley, spring (spring barley, Hordeum vulgare), wheat, spring (spring wheat, Triticum aestivum), buckwheat, wild (wild buckwheat, Polygonum convolvulus), mustard, wild (wild mustard, Sinapis arvensis), oat, wild (wild oat, Avena fatua), radish, wild (wild radish, Raphanus raphanistrum), […]), barley, winter (winter barley, Hordeum vulgare), and wheat, winter (winter wheat, Triticum aestivum) were planted into a silt loam soil and treated preemergence with test chemicals formulated in a non-phytotoxic solvent mixture which included a surfactant. At the same time, these species were planted in pots containing Redi-Earth® planting medium (Scotts Company, 14111 Scottslawn Road, Marysville, Ohio 43041) comprising spaghnum peat moss, vermiculite, wetting agent and starter nutrients and treated with postemergence applications of the test chemicals formulated in the same manner. Plants ranged in height from 2 to 18 cm (1- to 4-leaf stage). Treated plants and controls were maintained in a controlled growth environment for 7 to 21 days after which time all species were compared to controls and visually evaluated. Plant response ratings, summarized in Table D, are based on a scale of 0 to 100 where 0 is no effect and 100 is complete control. A dash (-) response means no test result.

oilseed rape = experiment: Test D pre-/postemergence herbicide test; assay type: in vivo, Brassica napus; conditions: for Plant response rating, Oilseed Rape: Preemergence, scale 0 to 100 (0 no effect, 100 complete control); for Plant response rating: Postemergence, Oilseed Rape, scale 0 to 100
Summary of the method: as §2

buckwheat, wild = experiment: Test D pre-/postemergence herbicide test; assay type: in vivo, Polygonum convolvulus; conditions: for Plant response rating, Buckwheat, Wild: scale 0 to 100 (0 no effect, 100 complete control); for Plant response rating: Buckwheat, Wild, scale 0 to 100
Summary of the method: as §2

deadnettle = experiment: Test D pre-/postemergence herbicide test; assay type: in vivo, Lamium amplexicaule; conditions: for Plant response rating, Deadnettle: scale 0 to 100 (0 no effect, 100 complete control); for Plant response rating: Deadnettle, scale 0 to 100
Summary of the method: as §2

canarygrass = experiment: Test D pre-/postemergence herbicide test; assay type: in vivo, Phalaris minor; conditions: for Plant response rating, Canarygrass: scale 0 to 100 (0 no effect, 100 complete control); for Plant response rating: Canarygrass, scale 0 to 100
Description: as §3

## O=C1NCC(c2cccc(Br)c2)C1C(=O)Nc1ccccc1F (centres unmarked) [Compound 66]
morningglory; 16 g ai/ha
  Plant response rating, Morningglory: 0
morningglory; 31 g ai/ha
  Plant response rating, Morningglory: 0
morningglory; 62 g ai/ha
  Plant response rating, Morningglory: 0
morningglory; 125 g ai/ha
  Plant response rating, Morningglory: 0
morningglory; 250 g ai/ha
  Plant response rating, Morningglory: 0
Arrowleaf sida; 16 g ai/ha
  Plant response rating, Arrowleaf Sida: 0
Arrowleaf sida; 31 g ai/ha
  Plant response rating, Arrowleaf Sida: 0
Arrowleaf sida; 62 g ai/ha
  Plant response rating, Arrowleaf Sida: 0
Arrowleaf sida; 125 g ai/ha
  Plant response rating, Arrowleaf Sida: 0
Arrowleaf sida; 250 g ai/ha
  Plant response rating, Arrowleaf Sida: 0
crabgrass, large; 16 g ai/ha
  Plant response rating, Crabgrass, Large: 0
crabgrass, large; 31 g ai/ha
  Plant response rating, Crabgrass, Large: 10
crabgrass, large; 62 g ai/ha
  Plant response rating, Crabgrass, Large: 75
crabgrass, large; 125 g ai/ha
  Plant response rating, Crabgrass, Large: 90
crabgrass, large; 250 g ai/ha
  Plant response rating, Crabgrass, Large: 98
nutsedge, yellow; 16 g ai/ha
  Plant response rating, Nutsedge, Yellow: 0
nutsedge, yellow; 31 g ai/ha
  Plant response rating, Nutsedge, Yellow: 0
nutsedge, yellow; 62 g ai/ha
  Plant response rating, Nutsedge, Yellow: 0
nutsedge, yellow; 125 g ai/ha
  Plant response rating, Nutsedge, Yellow: 0
nutsedge, yellow; 250 g ai/ha
  Plant response rating, Nutsedge, Yellow: 0
foxtail, giant; 16 g ai/ha
  Plant response rating, Foxtail, Giant: 0
foxtail, giant; 31 g ai/ha
  Plant response rating, Foxtail, Giant: 0
foxtail, giant; 62 g ai/ha
  Plant response rating, Foxtail, Giant: 0
foxtail, giant; 125 g ai/ha
  Plant response rating, Foxtail, Giant: 98
ryegrass, Italian; 16 g ai/ha
  Plant response rating, Ryegrass, Italian: 0
ryegrass, Italian; 31 g ai/ha
  Plant response rating, Ryegrass, Italian: 0
ryegrass, Italian; 62 g ai/ha
  Plant response rating, Ryegrass, Italian: 0
ryegrass, Italian; 125 g ai/ha
  Plant response rating, Ryegrass, Italian: 0
ryegrass, Italian; 250 g ai/ha
  Plant response rating, Ryegrass, Italian: 0

## O=C1NCC(c2cccc(C(F)(F)F)c2)C1C(=O)Nc1cccc(F)c1F (centres unmarked) [Compound 241]
galium; Preemergence, 31 g ai/ha
  Plant response rating, Galium: 20
galium; Preemergence, 62 g ai/ha
  Plant response rating, Galium: 25
galium; Preemergence, 125 g ai/ha
  Plant response rating, Galium: 35
galium; Preemergence, 250 g ai/ha
  Plant response rating: 80
blackgrass; Preemergence, 31 g ai/ha
  Plant response rating, Blackgrass: 20
blackgrass; Preemergence, 62 g ai/ha
  Plant response rating, Blackgrass: 55
blackgrass; Preemergence, 125 g ai/ha
  Plant response rating, Blackgrass: 50
blackgrass; Preemergence, 250 g ai/ha
  Plant response rating: 75
Oilseed rape; 31 g ai/ha
  Plant response rating, Oilseed Rape: 0
Oilseed rape; 62 g ai/ha
  Plant response rating, Oilseed Rape: 0
Oilseed rape; 125 g ai/ha
  Plant response rating, Oilseed Rape: 5
Oilseed rape; 250 g ai/ha
  Plant response rating, Oilseed Rape: 10
buckwheat, wild; Preemergence, 31 g ai/ha
  Plant response rating, Buckwheat, Wild: 15
buckwheat, wild; Preemergence, 62 g ai/ha
  Plant response rating, Buckwheat, Wild: 15
buckwheat, wild; Preemergence, 125 g ai/ha
  Plant response rating, Buckwheat, Wild: 20
buckwheat, wild; Preemergence, 250 g ai/ha
  Plant response rating: 80
deadnettle; Preemergence, 31 g ai/ha
  Plant response rating, Deadnettle: 35
deadnettle; Preemergence, 62 g ai/ha
  Plant response rating, Deadnettle: 30
deadnettle; Preemergence, 125 g ai/ha
  Plant response rating, Deadnettle: 35
deadnettle; Preemergence, 250 g ai/ha
  Plant response rating: 45
canarygrass; Preemergence, 31 g ai/ha
  Plant response rating, Canarygrass: 20
canarygrass; Preemergence, 62 g ai/ha
  Plant response rating, Canarygrass: 45
canarygrass; Preemergence, 125 g ai/ha
  Plant response rating, Canarygrass: 65
canarygrass; Preemergence, 250 g ai/ha
  Plant response rating: 75

## O=C1NCC(c2cc(F)c(F)c(F)c2)C1C(=O)Nc1ccccc1C(F)(F)F (racemic) [Compound 33]
galium; Postemergence, 16 g ai/ha
  Plant response rating: 0
galium; Postemergence, 31 g ai/ha
  Plant response rating: 0
galium; Postemergence, 62 g ai/ha
  Plant response rating: 0
galium; Postemergence, 125 g ai/ha
  Plant response rating: 0
galium; Postemergence, 250 g ai/ha
  Plant response rating: 0
blackgrass; Postemergence, 16 g ai/ha
  Plant response rating: 0
blackgrass; Postemergence, 31 g ai/ha
  Plant response rating: 0
blackgrass; Postemergence, 62 g ai/ha
  Plant response rating: 0
blackgrass; Postemergence, 125 g ai/ha
  Plant response rating: 0
blackgrass; Postemergence, 250 g ai/ha
  Plant response rating: 0
Oilseed rape; 16 g ai/ha
  Plant response rating: 0
Oilseed rape; 31 g ai/ha
  Plant response rating: 0
Oilseed rape; 62 g ai/ha
  Plant response rating: 10
Oilseed rape; 125 g ai/ha
  Plant response rating: 20
Oilseed rape; 250 g ai/ha
  Plant response rating: 30
buckwheat, wild; Postemergence, 16 g ai/ha
  Plant response rating: 0
buckwheat, wild; Postemergence, 31 g ai/ha
  Plant response rating: 0
buckwheat, wild; Postemergence, 62 g ai/ha
  Plant response rating: 0
buckwheat, wild; Postemergence, 125 g ai/ha
  Plant response rating: 0
buckwheat, wild; Postemergence, 250 g ai/ha
  Plant response rating: 10
deadnettle; Postemergence, 16 g ai/ha
  Plant response rating: 0
deadnettle; Postemergence, 31 g ai/ha
  Plant response rating: 0
deadnettle; Postemergence, 62 g ai/ha
  Plant response rating: 0
deadnettle; Postemergence, 125 g ai/ha
  Plant response rating: 0
deadnettle; Postemergence, 250 g ai/ha
  Plant response rating: 10
canarygrass; Postemergence, 16 g ai/ha
  Plant response rating: 0
canarygrass; Postemergence, 31 g ai/ha
  Plant response rating: 0
canarygrass; Postemergence, 62 g ai/ha
  Plant response rating: 0
canarygrass; Postemergence, 125 g ai/ha
  Plant response rating: 0
canarygrass; Postemergence, 250 g ai/ha
  Plant response rating: 0

## O=C1NCC(c2cc(F)c(F)c(F)c2)C1C(=O)Nc1ccccc1F (racemic) [Compound 34]
galium; Postemergence, 16 g ai/ha
  Plant response rating: 0
galium; Postemergence, 31 g ai/ha
  Plant response rating: 0
galium; Postemergence, 62 g ai/ha
  Plant response rating: 0
galium; Postemergence, 125 g ai/ha
  Plant response rating: 0
galium; Postemergence, 250 g ai/ha
  Plant response rating: 0
blackgrass; Postemergence, 16 g ai/ha
  Plant response rating: 0
blackgrass; Postemergence, 31 g ai/ha
  Plant response rating: 0
blackgrass; Postemergence, 62 g ai/ha
  Plant response rating: 0
blackgrass; Postemergence, 125 g ai/ha
  Plant response rating: 0
blackgrass; Postemergence, 250 g ai/ha
  Plant response rating: 0
Oilseed rape; 16 g ai/ha
  Plant response rating: 0
Oilseed rape; 31 g ai/ha
  Plant response rating: 0
Oilseed rape; 62 g ai/ha
  Plant response rating: 0
Oilseed rape; 125 g ai/ha
  Plant response rating: 0
Oilseed rape; 250 g ai/ha
  Plant response rating: 20
buckwheat, wild; Postemergence, 16 g ai/ha
  Plant response rating: 0
buckwheat, wild; Postemergence, 31 g ai/ha
  Plant response rating: 0
buckwheat, wild; Postemergence, 62 g ai/ha
  Plant response rating: 0
buckwheat, wild; Postemergence, 125 g ai/ha
  Plant response rating: 0
buckwheat, wild; Postemergence, 250 g ai/ha
  Plant response rating: 0
deadnettle; Postemergence, 16 g ai/ha
  Plant response rating: 0
deadnettle; Postemergence, 31 g ai/ha
  Plant response rating: 0
deadnettle; Postemergence, 62 g ai/ha
  Plant response rating: 0
deadnettle; Postemergence, 125 g ai/ha
  Plant response rating: 0
deadnettle; Postemergence, 250 g ai/ha
  Plant response rating: 0
canarygrass; Postemergence, 16 g ai/ha
  Plant response rating: 0
canarygrass; Postemergence, 31 g ai/ha
  Plant response rating: 0
canarygrass; Postemergence, 62 g ai/ha
  Plant response rating: 0
canarygrass; Postemergence, 125 g ai/ha
  Plant response rating: 0
canarygrass; Postemergence, 250 g ai/ha
  Plant response rating: 0
